From patent publication US20030148529A1 (priority 2000, published 2003) come the findings set out here.

Assay [1] relates to Male and female M. croceipes. More on the design: species or system Microplitis croceipes. The following applies: in vivo.
Another assay concerns M. croceipes. The arrangement: species or system Microplitis croceipes. The following applies: in vivo.

Take `CCCCCC(=O)CC` [3-Octanone]: the Head-sticking behavior result in assay [1] is recorded as “no head-sticking behavior”. Also, in the assay with M. croceipes, the “Average number of times a trained wasp entered the opening” value is on record as “approximately 1.5”, the “Average time spent in the opening” value came out at 15 s and the “Trained wasps displaying head-sticking behavior” value is recorded as “about 18 out of 20”.
